Columns and labels:
[1] = tested on: human breast carcinoma cells; conditions: prior art; cited from earlier work
[2] = tested on: rat mammary carcinomas; conditions: prior art; compared with ovariectomy; cited from earlier work
[3] = tested on: membrane receptors of human prostate cancer; assay: Affinity to membrane receptors of human prostate cancer using 125I-labeled [D-Trp6]LHRH; type: binding
Method: (§1) This is determined by using labelled LHRH and [D-Trp^6 ]LHRH. The assay is carried out similarly to that described by T. Kadar et al., Proc. Natl. Acad. Sci. USA, 85, 890-894 (1988).
(§2) *Affinity constants of the peptides for the first receptor class, Ka
(§3) (i.e. for high affinity binding sites) and for the second receptor class,
(§4) Ka2 (i.e. for low affinity binding sites) of human prostate cancer
(§5) and rat Dunning tumor, respectively, as determined by using ^125
(§6) Ilabeled [DTrp^6 ]LHRH.

[4] = tested on: membrane receptors of rat Dunning tumor; assay: Affinity to membrane receptors of rat Dunning tumor using 125I-labeled [D-Trp6]LHRH; type: binding
Method: as §1, §2, §3, §4, §5, §6

[5] = target: T1, membrane receptors of pituitary of male rats (Rattus norvegicus, UniProt P30969); assay: Binding affinity for membrane receptors of rat pituitary using 125I-labeled [D-Trp6]LHRH; conditions: Table 2, high affinity binding sites
T1 construct: from tissue; host or cells: pituitary of male rats (membranes)
T1 sequence (P30969 1-327): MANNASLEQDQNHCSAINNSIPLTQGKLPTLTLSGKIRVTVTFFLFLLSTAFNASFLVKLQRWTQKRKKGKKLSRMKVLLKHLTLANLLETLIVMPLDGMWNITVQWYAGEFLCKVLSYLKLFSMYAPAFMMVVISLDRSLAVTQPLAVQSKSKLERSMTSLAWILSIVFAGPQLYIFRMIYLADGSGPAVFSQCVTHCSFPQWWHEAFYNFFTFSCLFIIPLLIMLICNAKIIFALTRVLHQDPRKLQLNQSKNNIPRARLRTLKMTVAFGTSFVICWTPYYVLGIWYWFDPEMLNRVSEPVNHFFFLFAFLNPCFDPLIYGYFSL
Method: as §1
(§7) Table 2 presents the antiovulatory activity of the claimed compounds having LHRH-inhibiting properties. The inhibitory action was determined in vivo, in 4-day cycling rats as described [A. Corbin and C. W. Beattie, Endocr. Res. Commun., 2, 1-23 (1975)]. Affinities of the claimed compounds to membrane receptors of rat pituitary and human breast cancer cells are also given in Tables 1 and 2 as determined by using [^125 I,D-Trp^6 ]LHRH.
(§8) **Affinity constants of the peptides for the first receptor class (i.e.
(§9) for high affinity binding sites) of pituitary of male rats and human
(§10) breast cancer cells, respectively, as determined by using ^125
as §6
(§11) breast cancer cells, respectively, were determined by using ^125

[6] = target: T2, membrane receptors of human breast cancer cells (Homo sapiens, UniProt P30968); assay: Binding affinity for membrane receptors of human breast cancer cells using 125I-labeled [D-Trp6]LHRH; conditions: Table 2, high affinity binding sites
T2 construct: endogenous in cells; host or cells: human breast cancer cells (membranes)
T2 sequence (P30968 1-328): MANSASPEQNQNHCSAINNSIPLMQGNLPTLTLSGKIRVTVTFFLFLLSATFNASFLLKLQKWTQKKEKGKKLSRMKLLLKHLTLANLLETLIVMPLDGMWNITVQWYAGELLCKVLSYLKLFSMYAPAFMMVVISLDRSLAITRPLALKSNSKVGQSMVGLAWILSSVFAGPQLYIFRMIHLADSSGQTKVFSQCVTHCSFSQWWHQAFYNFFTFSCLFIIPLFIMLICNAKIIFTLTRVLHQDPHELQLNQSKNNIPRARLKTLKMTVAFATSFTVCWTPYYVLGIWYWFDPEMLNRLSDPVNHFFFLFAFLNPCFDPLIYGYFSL
Method: as §1, §7, §8, §9, §10, §6, §11

[7] = tested on: 4-day cycling rats; assay: In vivo antiovulatory activity in 4-day cycling rats; set-up: species or system rat
Method: This activity of the peptides is determined in 4-day-cycling rats as described [A. Corbin and C. W. Beattie, Endocr. Res. Commun., 2, 1-23 (1975)].
as §7
*LHRH-inhibiting potencies were assayed in 4day cyclic rats.

[8] = tested on: LHRH; conditions: prior art; cited from earlier work
[9] = first receptor class (high affinity binding sites)
[10] = second receptor class (low affinity binding sites)

CCNC(=O)[C@@H]1CCCN1C(=O)[C@H](CCCNC(=N)N)NC(=O)[C@H](CC(C)C)NC(=O)[C@@H](COC(C)(C)C)NC(=O)[C@H](Cc1ccc(O)cc1)NC(=O)[C@H](CO)NC(=O)[C@H](Cc1c[nH]c2ccccc12)NC(=O)[C@H](Cc1cnc[nH]1)NC(=O)[C@@H]1CCC(=O)N1 [Example A3]
growth of human breast carcinoma cells containing LHRH binding sites (in words) [1]: inhibited

CC(C)C[C@H](NC(=O)[C@@H](COC(C)(C)C)NC(=O)[C@H](Cc1ccc(O)cc1)NC(=O)[C@H](CO)NC(=O)[C@H](Cc1c[nH]c2ccccc12)NC(=O)[C@H](Cc1cnc[nH]1)NC(=O)[C@@H]1CCC(=O)N1)C(=O)N[C@@H](CCCNC(=N)N)C(=O)N1CCC[C@H]1C(=O)NNC(N)=O [Example A4]
effectiveness in treatment of rat mammary carcinomas (in words) [2]: as effective as ovariectomy

CC(C)C[C@H](NC(=O)[C@@H](Cc1c[nH]c2ccccc12)NC(=O)[C@H](Cc1ccc(O)cc1)NC(=O)[C@H](CO)NC(=O)[C@H](Cc1c[nH]c2ccccc12)NC(=O)[C@H](Cc1c[nH]cn1)NC(=O)[C@@H]1CCC(=O)N1)C(=O)N[C@@H](CCCNC(=N)N)C(=O)N1CCC[C@H]1C(=O)NCC(N)=O [[D-Trp^6]-LHRH, [D-Trp^6]LHRH, reference compound]
Human prostate cancer Ka1 [3, 9]: 0.04 nM⁻¹
Dunning tumor Ka1 [4, 9]: 1.87 nM⁻¹

Ac-D-Nal(2)-D-Phe(4Cl)-D-Trp-Ser-Arg-D-Lys[(Cu^++)(POLP)2 (DL-A2 pr)]-Leu-Arg-Pro-D-Ala-NH2 [Example XXII]
Binding affinity, Ka1, for membrane receptors of pituitary [5]: 2.901 nM⁻¹
Binding affinity, Ka1, for membrane receptors of cancer cells [6]: 1.337 nM⁻¹
% Blockade of ovulation ([7]; Dose 10 μg/rat): 60%

Ac-D-Nal(2)-D-Phe(4Cl)-D-Trp-Ser-Arg-D-Lys[(Cu^++)(SAL)2 (DL-A2 pr)]-Leu-Arg-Pro-D-Ala-NH2 [XII]
Binding affinity, Ka1, for membrane receptors of pituitary [5]: 9.183 nM⁻¹
Binding affinity, Ka1, for membrane receptors of cancer cells [6]: 4.951 nM⁻¹
% Blockade of ovulation ([7]; Dose 3 μg/rat): 20%

Ac-D-Nal(2)-D-Phe(4Cl)-D-Trp-Ser-Arg-D-Lys[(Ni^++)(SAL)2 (DL-A2 pr)]-Leu-Arg-Pro-D-Ala-NH2 [Example XV]
Binding affinity, Ka1, for membrane receptors of pituitary [5]: 8.676 nM⁻¹
Binding affinity, Ka1, for membrane receptors of cancer cells [6]: 4.418 nM⁻¹
% Blockade of ovulation ([7]; Dose 3 μg/rat): 20%

Ac-D-Nal(2)-D-Phe(4Cl)-D-Trp-Ser-Arg-D-Mel-Leu-Arg-Pro-D-Ala-NH2 [IIA]
Human prostate cancer Ka2 [3, 10]: 0.97 µM⁻¹
Dunning tumor Ka2 [4, 10]: 25.1 µM⁻¹

[Chlorambucil-D-Leu^2,D-Leu^3,D-Ala^6 ]LHRH (2-10)
activity of Chlorambucil-linked LHRH agonist / antagonist analogue (in words) [8]: moderate activities

[Chlorambucil-D-Phe^1,D-Phe^2,D-Trp^3,6 ]LHRH
activity of Chlorambucil-linked LHRH agonist / antagonist analogue (in words) [8]: practically inactive

[D-Lys(Chlorambucil)^6 ] LHRH
activity of Chlorambucil-linked LHRH agonist / antagonist analogue (in words) [8]: moderate activities
